Assay results as given in patent publication US20250368637A1, “SOLID-STATE FORMS OF N-(2-(4-CYANOTHIAZOLIDIN-3-YL)-2-OXOETHYL)-6-MORPHOLINOQUINOLINE-4-CARBOXAMIDE” (AstraZeneca AB, priority 2022, published 2025).

How the values were obtained:
hFAP (M39-A757) = hFAP (M39-A757) (Homo sapiens (Human), UniProt Q12884); assay: hFAP binding assay (surface plasmon resonance); details: SPR, 20° C.
Method: The hFAP protein used in the Examples was either commercially sourced or produced in insect cells as recombinant hFAP (Gp67-6HN-TEV-FAP (M39-A757), MW 89086.7 Da, or cd33-FAP (27-757)-6His, MW85926 Da).
Immobilization of hFAP (M39-A757) on a CMD200M sensor chip (Xantec) was performed using standard amine coupling procedure in immobilization buffer (10 mM HEPES, 150 mM NaCl, 0.05% Tween20, pH 7.4). The surface was washed with 10 mM NaOH, IM NaCl before being activated with EDC/NHS (GE Healthcare), followed by immobilization of hFAP (in 10 mM Acetate pH 5.0). Finally, the surface was deactivated by ethanolamine. Immobilization levels of hFAP were around 4000-6000 RU. The reference spot was treated as described, omitting the injection of hFAP. Compound concentration series were injected over the immobilized protein in increasing concentrations (2-500 nM) using single cycle kinetics in running buffer (20 mM TRIS, 150 mM NaCl, 0.05% Tween20, 1% DMSO, pH 7.4). Interaction models were fitted globally to the experimental traces, enabling determination of kon, koff and Kd.

FAP Cyno Plasma = FAP Cyno Plasma (Macaca fascicularis, UniProt A0A2K5VGH4); assay: FAP plasma inhibition assay, cynomolgus plasma; assay type: biochemical; details: cynomolgus plasma dilution 1:40
FAP Cyno Plasma, sequence (A0A2K5VGH4 1-745): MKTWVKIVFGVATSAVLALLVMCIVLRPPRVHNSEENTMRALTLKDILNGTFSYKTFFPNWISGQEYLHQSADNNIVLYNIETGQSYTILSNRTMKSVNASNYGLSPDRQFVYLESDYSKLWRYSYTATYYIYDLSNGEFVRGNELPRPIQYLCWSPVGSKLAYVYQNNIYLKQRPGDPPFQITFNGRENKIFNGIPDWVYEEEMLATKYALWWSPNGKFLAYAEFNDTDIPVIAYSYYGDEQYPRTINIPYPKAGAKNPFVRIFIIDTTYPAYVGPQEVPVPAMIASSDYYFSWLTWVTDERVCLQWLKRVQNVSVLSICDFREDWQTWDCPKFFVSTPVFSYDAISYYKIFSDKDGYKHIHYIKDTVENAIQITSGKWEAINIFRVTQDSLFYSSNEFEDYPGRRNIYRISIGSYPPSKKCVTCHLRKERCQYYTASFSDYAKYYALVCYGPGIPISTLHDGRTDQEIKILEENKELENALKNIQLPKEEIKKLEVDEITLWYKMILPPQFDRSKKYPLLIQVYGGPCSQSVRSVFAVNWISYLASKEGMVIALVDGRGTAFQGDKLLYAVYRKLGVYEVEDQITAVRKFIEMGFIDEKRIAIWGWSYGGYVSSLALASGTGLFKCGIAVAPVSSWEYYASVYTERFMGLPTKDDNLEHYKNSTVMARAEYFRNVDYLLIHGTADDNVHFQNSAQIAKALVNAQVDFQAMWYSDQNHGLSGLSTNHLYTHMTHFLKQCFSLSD
Method: Plasma (anticoagulant K2EDTA) was used as the enzyme source: Human plasma (Pooled from AZ Biobank), Mouse plasma (AZ AST Biobank), and Cynomolgus plasma (BioIVT, #NHP00PLK2FNN, lot CYN222895). 384-Well black fluotrack PS plates (Greiner 781076) were used. 20 μL diluted plasma (Cynomolgus and Human plasma dilution 1:40, Mouse plasma dilution 1:67) in buffer (PBS, 0.1% BSA) was added to 0.6 μL compounds (in DMSO). Compounds were tested using 10 CR, 3-fold dilution series from 500 nM FAC. Two replicates for each assay point were run on the same plate. A fluorescence blank read was taken before substrate addition. […] Plates were incubated for 40 min at rt in the dark. […] IC50 values were determined by plotting % inhibition versus log compound concentration.

hFAP (M39-A757), sequence (Q12884 39-757): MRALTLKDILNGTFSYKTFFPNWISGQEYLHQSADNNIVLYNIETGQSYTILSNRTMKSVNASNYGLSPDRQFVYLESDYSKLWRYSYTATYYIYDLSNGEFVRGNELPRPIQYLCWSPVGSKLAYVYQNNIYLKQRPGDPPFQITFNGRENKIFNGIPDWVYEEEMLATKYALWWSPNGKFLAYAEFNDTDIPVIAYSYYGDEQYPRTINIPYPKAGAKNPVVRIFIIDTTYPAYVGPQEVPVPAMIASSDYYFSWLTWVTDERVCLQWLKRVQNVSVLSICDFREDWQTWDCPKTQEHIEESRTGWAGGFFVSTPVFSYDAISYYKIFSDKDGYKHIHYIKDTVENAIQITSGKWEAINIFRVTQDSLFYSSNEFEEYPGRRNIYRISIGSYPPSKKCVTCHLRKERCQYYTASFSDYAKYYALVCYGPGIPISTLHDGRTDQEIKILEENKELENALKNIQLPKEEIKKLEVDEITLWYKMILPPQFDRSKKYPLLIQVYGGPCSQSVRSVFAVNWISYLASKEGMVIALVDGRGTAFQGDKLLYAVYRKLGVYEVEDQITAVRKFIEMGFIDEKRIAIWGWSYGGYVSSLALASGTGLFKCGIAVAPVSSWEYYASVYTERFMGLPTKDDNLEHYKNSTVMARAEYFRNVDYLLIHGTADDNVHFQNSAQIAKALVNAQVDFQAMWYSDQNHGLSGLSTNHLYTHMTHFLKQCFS

N#C[C@@H]1CSCN1C(=O)CNC(=O)c1ccnc2ccc(N3CCOCC3)cc12 [(R)—N-(2-(4-Cyanothiazolidin-3-yl)-2-oxoethyl)-6-morpholinoquinoline-4-carboxamide]
hFAP Binding assay k(off) (hFAP (M39-A757)): k(off) = 0.000046 1/s^3
hFAP Binding assay k(on) (hFAP (M39-A757)): k(on) = 4900000 M^−1s^−1
IC50 (FAP Cyno Plasma): 0.4 nM
